Test results published in US9822120B2, “Protein kinase inhibitors” (Pharmascience Inc., priority 2013, dated 2017).

Legend:
[1] = molecular target: histidine tagged recombinant human full-length Bruton Agammaglobulinemia Tyrosine Kinase (Btk) (Homo sapiens (Human), UniProt Q06187); test: Btk kinase inhibition assay, Method A (fluorescence polarization, KinEASE FP Fluorescein Green); assay type: biochemical; details: 10 μM ATP, 250 μM substrate, 60 minutes room temperature, Ki calculated from IC50 by Cheng-Prusoff equation
Protocol: Btk Kinase Inhibition Assays
Fluorescence polarization-based kinase assays were performed in 384 well-plate format using histidine tagged recombinant human full-length Bruton Agammaglobulinemia Tyrosine Kinase (Btk) and a modified protocol of the KinEASE™ FP Fluorescein Green Assay supplied from Millipore®. Kinase reaction were performed at room temperature for 60 minutes in presence of 250 μM substrate, 10 μM ATP and variable test article concentrations. The reaction was stopped with EDTA/kinease detection reagents. Phosphorylation of the substrate peptide was detected by fluorescence polarization measured with a Tecan 500 instrument. From the dose-response curve obtained, the IC50 was calculated using Graph Pad Prisms® using a non linear fit curve. The Km for ATP on each enzyme was experimentally determined and the Ki values calculated using the Cheng-Prusoff equation (see: Cheng Y, Prusoff W. H. (1973) Relationship between the inhibition constant (K1) and the concentration of inhibitor which causes 50% inhibition (I50) of an enzymatic reaction”. Biochem. Pharmacol. 22 (23): 3099-108). ki values are reported in Tables 2a and 2b: […]

splenocytes = test: Splenic cell proliferation assay (anti-IgM stimulated, Cell Titer-Glo); assay type: cell-based; details: Splenocyte; CD1 mouse splenocytes, 1 h pre-treatment, 2.5 ug/ml anti-IgM F(ab')2 for 72 h; read-out: EC50 (nM), Inhibition of splenic cell proliferation
Source text: Cellular Assay Splenic Cell Proliferation Assay
Proliferation of splenocytes in response to anti-IgM can be blocked by inhibition of Btk. Splenocytes were obtained from 6 week old male CD1 mice (Charles River Laboratories Inc.). Mouse spleens were manually disrupted in PBS and filtered using a 70 um cell strainer followed by ammonium chloride red blood cell lysis. Cells were washed, resuspended in Splenocyte Medium (HyClone RPMI supplemented with 10% heat-inactivated FBS, 0.5× non-essential amino acids, 10 mM HEPES, 50 uM beta mercaptoethanol) and incubated at 37° C., 5% CO2 for 2 h to remove adherent cells. Suspension cells were seeded in 96 well plates at 50,000 cells per well and incubated at 37° C., 5% CO2 for 1 h. Splenocytes were pre-treated in triplicate with 10,000 nM curves of Formula I compounds for 1 h, followed by stimulation of cell proliferation with 2.5 ug/ml anti-IgM F(ab′)2 (Jackson ImmunoResearch) for 72 h. Cell proliferation was measured by Cell Titer-Glo Luminescent Assay (Promega). EC50 values (50% proliferation in the presence of compound as compared to vehicle treated controls) were calculated from dose response compound curves using GraphPad Prism Software.

human BTK kinase (hBTK) = human BTK kinase (hBTK) (Homo sapiens (Human), UniProt Q06187); test: Btk kinase inhibition assay, Method B (KinaseProfiler radiometric protein kinase assay, Eurofins); assay type: biochemical; details: [γ-33P-ATP], 40 minutes room temperature
Protocol: In vitro potency of selected compound was defined against human BTK kinase (hBTK) using KinaseProfiler radiometric protein kinase assays performed at Eurofins Pharma Discovery Services UK Limited.
hBTK kinase is diluted in buffer and all compounds were prepared to 50× final assay concentration in 100% DMSO. This working stock of the compound was added to the assay well as the first component in the reaction, followed by the remaining components as detailed in the assay protocol listed above. The reaction was initiated by the addition of the MgATP mix. The kinase reaction was performed at room temperature for 40 minutes in presence of 250 μM substrate, 10 mM MgAcetate, [γ-33P-ATP] (specific activity approx. 500 cpm/pmol, concentration as required) and variable test article concentrations. The ATP concentrations in the assays were with 15 μM of the apparent. The reaction was stopped by the addition of 3% phosphoric acid solution. 10 μL of the reaction is then spotted onto a P30 filtermat and washed three times for 5 minutes in 75 mM phosphoric acid and once in methanol prior to drying and scintillation counting. In addition positive control wells contain all components of the reaction, except the compound of interest; however, DMSO (at a final concentration of 2%) were included in these wells to control for solvent effects as well as blank wells contain all components of the reaction, with a reference inhibitor replacing the compound of interest. This abolishes kinase activity and establishes the base-line (0% kinase activity remaining). The potency of each compound was reported by estimating the EC50.

Sequence of histidine tagged recombinant human full-length Bruton Agammaglobulinemia Tyrosine Kinase (Btk) (Q06187 whole entry): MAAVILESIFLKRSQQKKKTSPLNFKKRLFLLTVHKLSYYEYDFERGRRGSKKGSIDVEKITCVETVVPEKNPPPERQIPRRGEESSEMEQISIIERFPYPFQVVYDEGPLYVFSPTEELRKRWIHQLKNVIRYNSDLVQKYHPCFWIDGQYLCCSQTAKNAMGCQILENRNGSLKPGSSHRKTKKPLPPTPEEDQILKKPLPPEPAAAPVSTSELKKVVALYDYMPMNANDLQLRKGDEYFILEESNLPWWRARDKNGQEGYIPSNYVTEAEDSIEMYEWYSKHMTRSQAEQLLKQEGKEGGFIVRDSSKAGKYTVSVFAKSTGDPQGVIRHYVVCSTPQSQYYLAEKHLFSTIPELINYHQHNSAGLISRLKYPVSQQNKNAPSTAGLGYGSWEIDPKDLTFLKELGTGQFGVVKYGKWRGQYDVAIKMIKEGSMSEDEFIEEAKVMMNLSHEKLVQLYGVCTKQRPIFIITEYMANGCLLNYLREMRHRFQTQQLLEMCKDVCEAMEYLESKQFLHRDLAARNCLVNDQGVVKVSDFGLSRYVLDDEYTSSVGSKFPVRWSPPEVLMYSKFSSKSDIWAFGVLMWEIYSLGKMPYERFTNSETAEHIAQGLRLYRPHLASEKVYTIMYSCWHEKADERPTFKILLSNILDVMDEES
Sequence of human BTK kinase (hBTK) (Q06187 whole entry): as above

SMILES	Ki [1] [nM]	EC50 (splenocytes) [nM]	EC50 (human BTK kinase (hBTK)) [nM]
Cc1ncc(COc2cc(F)cc(Oc3ccc(-c4nc(C(C)C)n5ccnc(N)c45)cc3)c2)s1 [Compound 1]	< 100	< 100	
Cc1ncc(COc2cc(F)cc(Oc3ccc(-c4nc(C(C)C)n5ccnc(N)c45)cc3)c2)cn1 [Compound 2]	< 100	< 100	
Cc1ccc(COc2cc(F)cc(Oc3ccc(-c4nc(C(C)C)n5ccnc(N)c45)cc3)c2)cn1 [Compound 3]	< 100	< 100	
Cc1ncc(COc2cc(F)cc(Oc3ccc(-c4nc(C5CCCC5)n5ccnc(N)c45)cc3)c2)s1 [Compound 4]	< 100	< 100	
Cc1ccc(COc2cc(F)cc(Oc3ccc(-c4nc(C5CCCC5)n5ccnc(N)c45)cc3)c2)cn1 [Compound 5]	< 100	< 100	
Cc1ncc(COc2cc(F)cc(Oc3ccc(-c4nc(C5CCCC5)n5ccnc(N)c45)cc3)c2)cn1 [Compound 6]	< 100	< 100	
Cc1ncc(COc2cc(F)cc(Oc3ccc(-c4nc(C5CCOCC5)n5ccnc(N)c45)cc3)c2)s1 [Compound 7]	< 100	< 100	
Cc1ccc(COc2cc(F)cc(Oc3ccc(-c4nc(C5CCOCC5)n5ccnc(N)c45)cc3)c2)cn1 [Compound 8]	< 100	< 100	
Cc1ncc(COc2cc(F)cc(Oc3ccc(-c4nc(C5CCOCC5)n5ccnc(N)c45)cc3)c2)cn1 [Compound 9]	< 100	< 100	
Cc1ncc(COc2cc(F)cc(Oc3ccc(-c4nc(C5CC5)n5ccnc(N)c45)cc3)c2)s1 [Compound 10]	< 100	< 100	
Cc1ncc(COc2cc(F)cc(Oc3ccc(-c4nc(C5CC5)n5ccnc(N)c45)cc3)c2)cn1 [Compound 11]	< 100	< 100	
Cc1ncc(COc2cc(F)cc(Oc3ccc(-c4nc(C5(C)COC5)n5ccnc(N)c45)cc3)c2)cn1 [Compound 12]	< 100	< 100	
Cc1ncc(COc2cc(F)cc(Oc3ccc(-c4nc([C@H]5C[C@@](C)(O)C5)n5ccnc(N)c45)cc3)c2)cn1 [Compound 13]	< 100	< 100	
Cc1ncc(COc2cc(F)cc(Oc3ccc(-c4nc(C5CC(O)(CO)C5)n5ccnc(N)c45)cc3)c2)s1 (stereo not shown) [Compound 14]	< 100	< 100	
Cc1ncc(COc2cc(F)cc(Oc3ccc(-c4nc(C5(C)COC5)n5ccnc(N)c45)cc3)c2)s1 [Compound 15]	< 100	< 100	
Cc1ncc(COc2cc(F)cc(Oc3ccc(-c4nc([C@H]5C[C@@](C)(O)C5)n5ccnc(N)c45)cc3)c2)s1 [Compound 16]	< 100	< 100	

SMILES	Ki [1] [nM]	EC50 (splenocytes) [nM]	EC50 (human BTK kinase (hBTK)) [nM]
Cc1ncc(COc2cc(F)cc(Oc3ccc(-c4nc(C5CC(=O)C5)n5ccnc(N)c45)cc3)c2)s1 [Compound 17]	< 100	< 100	
Cc1ncc(COc2cc(F)cc(Oc3ccc(-c4nc(CCN5CCCC5)n5ccnc(N)c45)cc3)c2)cn1 [Compound 18]	< 100	100 to 1000	
Cc1ncc(COc2cc(F)cc(Oc3ccc(-c4nc(C5CC(O)(CO)C5)n5ccnc(N)c45)cc3)c2)cn1 (stereo not shown) [Compound 19]	< 100	< 100	
Cc1ncc(COc2cc(F)cc(Oc3ccc(-c4nc([C@H]5C[C@@H](N6CCN(C)CC6)C5)n5ccnc(N)c45)cc3)c2)s1 [Compound 20]	< 100	< 100	
Cc1ncc(COc2cc(F)cc(Oc3ccc(-c4nc(C5CC(=O)C5)n5ccnc(N)c45)cc3)c2)cn1 [Compound 21]	< 100	< 100	
Cc1ncc(COc2cc(F)cc(Oc3ccc(-c4nc([C@@H]5CCCNC5)n5ccnc(N)c45)cc3)c2)cn1 [Compound 22]	< 100	< 100	
CC(=O)N1CCC[C@@H](c2nc(-c3ccc(Oc4cc(F)cc(OCc5cnc(C)nc5)c4)cc3)c3c(N)nccn23)C1 [Compound 24]	< 100	< 100	
C[C@]1(O)C[C@@H](c2nc(-c3ccc(Oc4cc(F)cc(OCc5ccccc5)c4)cc3)c3c(N)nccn32)C1 [Compound 25]	< 100	< 100	
CC(=O)N1CC(c2nc(-c3ccc(Oc4cc(F)cc(OCc5cnc(C)nc5)c4)cc3)c3c(N)nccn23)C1 [Compound 26]	< 100	< 100	
Cc1ncc(COc2cc(F)cc(Oc3ccc(-c4nc(C5CNC5)n5ccnc(N)c45)cc3)c2)cn1 [Compound 27]	< 100	100 to 1000	
Cc1ncc(COc2cc(F)cc(Oc3ccc(-c4nc([C@H]5C[C@@H](O)C5)n5ccnc(N)c45)cc3)c2)cn1 [Compound 29]		< 100	< 100
Cc1ncc(COc2cc(F)cc(Oc3ccc(-c4nc(C5CCNCC5)n5ccnc(N)c45)cc3)c2)cn1 [Compound 30]		< 100	< 100
CC(=O)N1CCC(c2nc(-c3ccc(Oc4cc(F)cc(OCc5cnc(C)nc5)c4)cc3)c3c(N)nccn23)CC1 [Compound 31]		< 100	< 100
Cc1ncc(COc2cc(F)cc(Oc3ccc(-c4nc([C@H]5C[C@@H](N6CCOCC6)C5)n5ccnc(N)c45)cc3)c2)cn1 [Compound 33]		< 100	< 100
Cc1ncc(COc2cc(F)cc(Oc3ccc(-c4nc([C@@H]5CCCN(C6COC6)C5)n5ccnc(N)c45)cc3)c2)cn1 [Compound 34]		< 100	< 100
CC(C)c1nc(-c2ccc(Oc3cc(F)cc(OCc4ccc(CO)nc4)c3)cc2)c2c(N)nccn12 [Compound 35]		< 100	< 100
